PubChem BioAssay AID330 (DTP/NCI, 2004)
“And” between values parts separate entries of the source, which are not always exact repeats. Identical values can stand only once. Inconclusive results and toxic doses are left out. Rule for the calls: active = survival T/C of 150% or more; inactive = T/C below 125% in these data.

Test system: P388 leukemia ip, CD2F1 mice, survival T/C
Experiment: NCI In Vivo Anticancer Drug Screen. Data for tumor model P388 Leukemia (intraperitoneal) in CD2F1 (CDF1) mice
Conditions: endpoint: median survival time, higher = longer survival
Outline: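 Mice carrying the transplanted tumor received test compound or vehicle. Survival was recorded in each group, and the value is the treated-group measurement divided by that of the vehicle-treated control group.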

[1] = dose: 50.0 mg/kg/injection, schedule: Q01DX009 (ip), vehicle: saline with Tween-80
[2] = dose: 100.0 mg/kg/injection, schedule: Q01DX009 (ip), vehicle: saline with Tween-80
[3] = dose: 200.0 mg/kg/injection, schedule: Q01DX009 (ip), vehicle: saline with Tween-80
[4] = dose: 50.0 mg/kg/injection, schedule: Q01DX009 (ip), vehicle: Klucel (hydroxypropylcellulose) (HPC)
[5] = dose: 100.0 mg/kg/injection, schedule: Q01DX009 (ip), vehicle: Klucel (hydroxypropylcellulose) (HPC)
[6] = dose: 200.0 mg/kg/injection, schedule: Q01DX009 (ip), vehicle: Klucel (hydroxypropylcellulose) (HPC)
[7] = dose: 50.0 mg/kg/injection, schedule: Q01DX005 (ip), vehicle: Klucel (hydroxypropylcellulose) (HPC)
[8] = dose: 100.0 mg/kg/injection, schedule: Q01DX005 (ip), vehicle: Klucel (hydroxypropylcellulose) (HPC)
[9] = dose: 200.0 mg/kg/injection, schedule: Q01DX005 (ip), vehicle: Klucel (hydroxypropylcellulose) (HPC)
[10] = dose: 100.0 mg/kg/injection, schedule: Q01DX001 (ip), vehicle: saline
[11] = dose: 200.0 mg/kg/injection, schedule: Q01DX001 (ip), vehicle: saline
[12] = dose: 400.0 mg/kg/injection, schedule: Q01DX001 (ip), vehicle: saline
[13] = dose: 60.0 mg/kg/injection, schedule: Q01DX005 (ip), vehicle: saline with Tween-80
[14] = dose: 120.0 mg/kg/injection, schedule: Q01DX005 (ip), vehicle: saline with Tween-80
[15] = dose: 240.0 mg/kg/injection, schedule: Q01DX005 (ip), vehicle: saline with Tween-80

Measured: T/C

CC(=O)CC(=O)CCCC(=O)O
inactive: [1] 96 % of control | [2] 99 % of control | [3] 104 % of control

CNc1n[nH]c(-c2ccccc2)n1
inactive: [4] 101 % of control | [5] 102 % of control | [6] 102 % of control

CO
inactive: dose: 0.5 % in 0.5 ml injection vol, schedule: Q01DX009 (ip), vehicle: water 105 % of control | dose: 1.0 % in 0.5 ml injection vol, schedule: Q01DX009 (ip), vehicle: water 102 % of control | dose: 2.0 % in 0.5 ml injection vol, schedule: Q01DX009 (ip), vehicle: water 104 % of control | dose: 4.0 % in 0.5 ml injection vol, schedule: Q01DX009 (ip), vehicle: water 104 % of control | dose: 8.0 % in 0.5 ml injection vol, schedule: Q01DX009 (ip), vehicle: water 100 % of control and 107 % of control | dose: 16.0 % in 0.5 ml injection vol, schedule: Q01DX009 (ip), vehicle: water 94 % of control

O=c1[nH][nH]c(O)c1-c1ccc(-c2c(O)[nH][nH]c2=O)cc1
inactive: [7] 105 % of control | [8] 105 % of control | [9] 101 % of control

CN(CC(O)C(O)C(O)C(O)CN(C)N=O)N=O (stereo not given)
inactive: [10] 115 % of control | [11] 100 % of control | [12] 110 % of control

CCCOC(=O)c1ccccc1C(=O)O
inactive: [1] 105 % of control | [2] 104 % of control | [3] 101 % of control

Cc1c(Cl)cccc1NC(=O)NNC(=O)c1ccncc1
inactive: [4] 90 % of control | [5] 88 % of control | [6] 88 % of control

COCC1(C)CCCC2(C)C1CCC13CCC(OC(C)=O)CC12O3 (stereo not given)
inactive: [10] 102 % of control | [11] 108 % of control | [12] 110 % of control

N#CC1OC1c1ccccn1 (stereo not given)
inactive: dose: 6.25 mg/kg/injection, schedule: Q01DX005 (ip), vehicle: saline + Tween-80 + alcohol 98 % of control | dose: 12.5 mg/kg/injection, schedule: Q01DX005 (ip), vehicle: saline + Tween-80 + alcohol 98 % of control

C=C(C)C(O)C#CCO[Si](c1ccccc1)(c1ccccc1)C(C)(C)C (stereo not given)
inactive: [13] 95 % of control | [14] 97 % of control | [15] 98 % of control

COc1cc2c(cc1O)C(=O)c1[nH]c3ccccc3c1CC2
inactive: dose: 100.0 mg/kg/injection, schedule: Q04DX003 (ip), vehicle: saline 107 % of control | dose: 200.0 mg/kg/injection, schedule: Q04DX003 (ip), vehicle: saline 107 % of control | dose: 400.0 mg/kg/injection, schedule: Q04DX003 (ip), vehicle: saline 101 % of control

CN1NC(c2ccccc2)NN(C)C1=S
inactive: dose: 60.0 mg/kg/injection, schedule: Q01DX005 (ip), vehicle: Klucel (hydroxypropylcellulose) (HPC) 101 % of control | dose: 120.0 mg/kg/injection, schedule: Q01DX005 (ip), vehicle: Klucel (hydroxypropylcellulose) (HPC) 98 % of control | dose: 240.0 mg/kg/injection, schedule: Q01DX005 (ip), vehicle: Klucel (hydroxypropylcellulose) (HPC) 106 % of control

Nc1c(C(=O)O)c(Br)cc2c1C(=O)c1ccccc1C2=O
inactive: [7] 99 % of control | [8] 99 % of control | [9] 107 % of control

CCCNc1ccnc(F)n1
inactive: dose: 12.5 mg/kg/injection, schedule: Q01DX005 (ip), vehicle: Klucel (hydroxypropylcellulose) (HPC) 100 % of control | dose: 25.0 mg/kg/injection, schedule: Q01DX005 (ip), vehicle: Klucel (hydroxypropylcellulose) (HPC) 102 % of control | [7] 106 % of control | [8] 105 % of control

CCN(CC)c1c(C)c(C(=O)OC)nn1-c1ccccc1
inactive: [13] 107 % of control | [14] 104 % of control | [15] 96 % of control

N#CC1CCC(c2ccccc2)(c2ccccc2)C1=O (stereo not given)
inactive: dose: 100.0 mg/kg/injection, schedule: Q04DX003 (ip), vehicle: Klucel (hydroxypropylcellulose) (HPC) 94 % of control | dose: 200.0 mg/kg/injection, schedule: Q04DX003 (ip), vehicle: Klucel (hydroxypropylcellulose) (HPC) 95 % of control
